Experimental data reported in patent US12076329B2, “Compositions and methods for enhancing visual function” (The Regents of the University of California, priority 2020, dated 2024).
“Also recorded” adds a separate entry of the source.

What was measured:
[1] = target: T1, SNAP-mGluR2 (Rattus norvegicus, UniProt P31421); assay: Photoactivation of SNAP-mGluR2 read out as GIRK current, whole cell patch clamp in HEK293 cells; format: cell-based
T1 construct: expressed in transfected cells; host or cells: HEK293 / HEK 293T, with co-expressed GIRK channel
Method: Whole cell patch clamp recordings from HEK 293T cells were performed 24-48 hours after transfection as previously described (Farrants et al., 2018). Briefly, voltage clamp recordings at −60 mV were performed in a high potassium (120 mM) solution to enable large inward currents upon receptor activation.
Unless otherwise noted, cells were incubated with 1-10 μM of PORTL for 45-60 min at 37° C. in the appropriate extracellular recording solution. Labeling efficiency was determined as previously described (Levitz et al., 2017). Illumination was applied to the entire field of view using a CoolLED pE-4000 through a 40× objective. Light intensity in the sample plane was 1-2 mW/mm^2. pClamp software was used for both data acquisition and control of illumination. All drugs were purchased from Tocris and applied using a gravity-driven perfusion system.
FIG. 3A-3C. Monovalent BGAG12,460 elicits rat SNAP-mGluR2 and human SNAP-mGluR6 GIRK photo-current in HEK293 cells. FIG. 3A. Group II and III mGluRs, like mGluR2 and 6, respectively, couple to GIRK channels in neurons and this system reconstitutes in non-neuronal cell lines, so that SNAP-mGluR2 or 6 coupled to a BGAG photoswitch will be activated by light and induce hyperpolarizing GIRK current. FIG. 3B. Blue (460 nm) light photo-activates BGAG12,460:SNAP-mGluR2 and elicits an inward K+ current from co-expressed GIRK channel in a HEK293 cell voltage clamped at −60 mV with [K+]in=[K+]out=150 mM. FIG. 3C.
FIG. 4A-4D. Multibranched BGAG12,460 increases potency and sensitivity of SNAP-mGluR2 activation of GIRK channels in HEK293 cells. FIG. 4A. ^4×BGAG12,460 consists of a single BG end for 1:1 attachment to SNAP on each subunit of the mGluR and 4 branches of a 12-PEG linker, with each branch bearing a photoswitchable azobenzene-glutamate (AG). FIG. 4B. […] Dependence of SNAP-mGluR2 photo-activation efficiency, read out as GIRK current, with single, 2-branch and 4-branch BGAG12,460. […]

[2] = test system: rd1 mice expressing SNAP-mGluR2 in ON-BCs; assay: 2-chamber light/dark light aversion test, SNAP-mGluR2 in ON-BCs; format: in vivo, mouse; details: in PBS intravitreal
Method: Mouse experiments were conducted under the express approval of the University of California Animal Care and Use Committee, wt mice (C57BL/6J) and rd1 mice (C3H) were purchased from the Jackson Laboratory and housed on a 12-h light/dark cycle with food and water ad libitum. cDNA encoding SNAP-mGluR2 was inserted in an established viral cassette under control of either the human synapsin promoter (hsyn-1) for expression in RGCs or a 4-copy concatemer of the mouse grm6 minimal promoter (4×grm6) for expression in ON-BCs and packaged in the AAV 2/2-4YF capsid. The vector, containing 10^10-10^12 viral genomes was delivered in a 2 µl volume to the vitreous of the rd1 mouse eye via microinjection. rAAV injections were at p30-p60 and in vivo and in vitro experiments at p90-p160. AAVs were produced as previously described.
The 2-chamber light-dark passive avoidance test was performed. White light (wavelength range) at ˜100 μW cm^2 or either blue light (460/45 nm) or green light (535/50 nm) at 0.5-25 μW cm^2 was mounted above the chamber with homogeneously distributed light.
Animal movements were tracked using IR sensors on the shuttle box. Time spent in the light and dark chambers was measured and analyzed using Graphic State and Graphic State RT (Coulbourn Instruments).
Whether ^4×BGAG12,460:SNAP-mGluR2 would also restore light perception in ON-BCs was tested. […]

[3] = test system: rd1 mice expressing SNAP-mGluR2 in RGCs; assay: Line pattern recognition (learned aversive association, iPad displays), SNAP-mGluR2 in RGCs; format: in vivo, mouse; details: for line pattern recognition in moving displays (lines 1 or 6 cm apart): displays moving at 4 or 8 cm/s; for high-acuity line pattern recognition, 0.5 cm wide lines separated by 0.25 or 0.5 cm: in PBS intravitreal
Method: (§1) Modified active avoidance was assayed as previously described^19, using the Coulbourn shuttle box (H10-11M-SC), however, now iPad tablet screens were mounted onto the shuttle cage wall, each displaying one of two images that differed in orientation or distance between two lines but were otherwise of equal shape, size, and light intensity. The aversive image side was paired with a foot shock of 0.7 mA. Upon recall the light patterns were reversed to avoid a bias for location and time spent on each side was recorded. Adaptation was tested by dimming or brightening the display to different intensities.
As shown above, ^4×BGAG12,460:SNAP-mGluR2 in either RGCs or ON-BCs confers high sensitivity light perception. It was asked whether ^4×BGAG12,460:SNAP-mGluR2 would support patterned vision. The ability of treated and untreated rd1 mice to discriminate between two different line patterns in a learned negative association task was tested. The task is carried out in a 2-chamber arena, where the floor in each chamber is conductive and can apply an independent aversive mild foot shock. […] The mouse was trained for two days, during which a mild foot shock was given in one of the chambers. The line pattern associated with the foot shock was assigned randomly initially but then kept consistent for that animal throughout the 2 days of training. […] The chambers were cleaned thoroughly before and after each training or test session to remove olfactory clues. The room was kept dark to avoid room reference visual cues. And the aversive and non-aversive cues were switched between the end of the second day of training and the test day to avoid location bias.
To further assess the restored line pattern recognition, the lines were made thinner and the separation between the lines was reduced.
The kinetics of onset, decay and recovery of the restored light response are expected to affect the ability to recognize a visual pattern. […] Thus, the speed limit of ^4×BGAG12,460:SNAP-mGluR2 in RGCs is ≥8 cm/s, whereas that of medium wave cone opsin in RGCs is ≤4 cm/s.

[4] = test system: rd1 mice expressing SNAP-mGluR2 in ON-BCs; assay: Line pattern recognition (learned aversive association, iPad displays), SNAP-mGluR2 in ON-BCs; format: in vivo, mouse; details: in PBS, trained and tested within a week after intravitreal injection
Method: as §1
As shown above, ^4×BGAG12,460:SNAP-mGluR2 in either RGCs or ON-BCs confers high sensitivity light perception. It was asked whether ^4×BGAG12,460:SNAP-mGluR2 would support patterned vision. The ability of treated and untreated rd1 mice to discriminate between two different line patterns in a learned negative association task was tested. The task is carried out in a 2-chamber arena, where the floor in each chamber is conductive and can apply an independent aversive mild foot shock. […] The mouse was trained for two days, during which a mild foot shock was given in one of the chambers. The line pattern associated with the foot shock was assigned randomly initially but then kept consistent for that animal throughout the 2 days of training. […]

T1 sequence (P31421 with tags, fused parts or gaps): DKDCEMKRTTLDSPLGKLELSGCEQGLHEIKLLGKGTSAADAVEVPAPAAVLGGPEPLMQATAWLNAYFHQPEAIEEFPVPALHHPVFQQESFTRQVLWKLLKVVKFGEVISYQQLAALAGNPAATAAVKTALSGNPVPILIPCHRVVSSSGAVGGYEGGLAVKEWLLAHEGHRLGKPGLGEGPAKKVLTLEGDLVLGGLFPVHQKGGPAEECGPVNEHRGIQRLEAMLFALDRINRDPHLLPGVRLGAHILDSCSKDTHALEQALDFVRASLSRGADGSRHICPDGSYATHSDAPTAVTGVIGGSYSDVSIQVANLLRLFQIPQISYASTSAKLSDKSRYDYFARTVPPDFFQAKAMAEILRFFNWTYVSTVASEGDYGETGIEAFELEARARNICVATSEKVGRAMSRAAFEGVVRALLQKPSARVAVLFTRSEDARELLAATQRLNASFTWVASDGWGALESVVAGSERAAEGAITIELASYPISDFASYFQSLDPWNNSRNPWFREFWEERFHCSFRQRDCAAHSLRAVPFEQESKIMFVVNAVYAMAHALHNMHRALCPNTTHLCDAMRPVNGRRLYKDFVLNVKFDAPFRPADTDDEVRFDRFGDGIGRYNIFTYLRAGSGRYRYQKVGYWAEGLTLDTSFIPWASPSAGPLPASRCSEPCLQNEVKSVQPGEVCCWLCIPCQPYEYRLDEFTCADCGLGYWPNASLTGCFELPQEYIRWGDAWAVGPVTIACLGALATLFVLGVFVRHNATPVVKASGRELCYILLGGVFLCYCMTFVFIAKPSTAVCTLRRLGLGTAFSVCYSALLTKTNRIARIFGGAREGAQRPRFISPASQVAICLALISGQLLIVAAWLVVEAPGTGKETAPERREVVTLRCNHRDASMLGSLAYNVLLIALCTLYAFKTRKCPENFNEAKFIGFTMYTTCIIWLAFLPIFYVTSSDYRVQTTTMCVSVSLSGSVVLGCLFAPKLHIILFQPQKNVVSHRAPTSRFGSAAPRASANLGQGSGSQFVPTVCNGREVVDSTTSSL

Compound: Nc1nc(OCc2ccc(CNC(=O)CCCC(=O)N[C@H](CCC(=O)N[C@H](CCC(=O)NCCOCCOCCOCCOCCOCCOCCOCCOCCOCCOCCOCCOCCC(=O)NCCNc3ccc(/N=N/c4ccc(NC(=O)CCC[C@@H](C[C@H](N)C(=O)O)C(=O)O)cc4)cc3)C(=O)NCCOCCOCCOCCOCCOCCOCCOCCOCCOCCOCCOCCOCCC(=O)NCCNc3ccc(/N=N/c4ccc(NC(=O)CCC[C@@H](C[C@H](N)C(=O)O)C(=O)O)cc4)cc3)C(=O)N[C@H](CCC(=O)NCCOCCOCCOCCOCCOCCOCCOCCOCCOCCOCCOCCOCCC(=O)NCCNc3ccc(/N=N/c4ccc(NC(=O)CCC[C@@H](C[C@H](N)C(=O)O)C(=O)O)cc4)cc3)C(=O)NCCOCCOCCOCCOCCOCCOCCOCCOCCOCCOCCOCCOCCC(=O)NCCNc3ccc(/N=N/c4ccc(NC(=O)CCC[C@@H](C[C@H](N)C(=O)O)C(=O)O)cc4)cc3)cc2)c2nc[nH]c2n1 [^4×BGAG12,460]
- visible light photoactivation of SNAP-mGluR2 ([1]; 460 nm light, GIRK current, HEK293 cells): near-complete photoactivation of mGluR2; also recorded: close to the maximum activation that is achieved with saturating glutamate
- increase in sensitivity (shift of mid-point of the intensity-response curve) ([1]; cultured HEK293 cells, versus BGAG12,460): ~5 fold
- week post-injection by which dark preference disappeared [2]: ≤ 3 week
- light aversion (time in dark chamber) ([2]; first week after injection): spent more time in the dark chamber
- speed limit of line pattern recognition in moving displays [3]: ≥ 8 cm/s
- line pattern recognition in moving displays (lines 1 or 6 cm apart) [3]: performed as well as wildtype animals when the line displays moved at either 4 or 8 cm/s
- line pattern recognition in moving displays (lines 1 or 6 cm apart) ([3]; listed as 4×BGAG): supports line pattern recognition as well as wildtype vision when visual displays move at 8 cm/s
- high-acuity line pattern recognition, 0.5 cm wide lines separated by 0.25 or 0.5 cm [3]: enabled the rd1 mice to perform the task and to do so as well as wildtype mice
- high-acuity line pattern recognition, 0.5 cm wide lines separated by 0.25 or 0.5 cm ([3]; listed as 4×BGAG): supports line pattern recognition approaching wild-type acuity limit
- line pattern recognition, parallel lines spaced 1 versus 6 cm ([3]; in PBS, trained and tested within a week after intravitreal injection): spent more time on the side of the non-aversive visual display
- line pattern recognition, parallel lines spaced 1 versus 6 cm [4]: spent also more time on the side of the non-aversive visual display
